Data from patent publication US6586369B1, “Fungicidal agents containing pyrrolidones as their active agents and use thereof for treating plants” (BASF Aktiengesellschaft, priority 2000, dated 2003).

Experiments:
harmful fungi = assay: Fungicidal activity, general statement, no test named; conditions: no test conditions given

| melting point [°C] | SMILES | fungicidal activity (in words) (harmful fungi) |
| --- | --- | --- |
| 148 to 149 | O=C1C(Br)=C(c2ccccc2)C(=O)N1Nc1ccccc1 [No. 486, 1-Anilino-3-bromo-4-phenylpyrrol-2,5-dione] |  |
| 178 to 180 | C[S+]([O-])C1=C(c2ccccc2)C(=O)N(Nc2ccccc2)C1=O (stereo not shown) [No. 1042, 1-Anilino-3-methylsulfinyl-4-phenylpyrrol-2,5-dione] |  |

| SMILES | melting point [°C] | fungicidal activity (in words) (harmful fungi) |
| --- | --- | --- |
| O=C1C(Cl)=C(c2ccccc2)C(=O)N1Nc1ccccc1 [No. 1, 1-Anilino-3-chloro-4-phenylpyrrol-2,5-dione] | 143 to 145 | excellent fungicidal activity |
